Biological target: T1, human MR (Homo sapiens, UniProt P08235)
T1 construct: The full length human MR gene is cloned from a human kidney or human brain cDNA library; made in house; host or cells: SF9 insect cells (baculovirus)
T1 sequence (P08235 1-984): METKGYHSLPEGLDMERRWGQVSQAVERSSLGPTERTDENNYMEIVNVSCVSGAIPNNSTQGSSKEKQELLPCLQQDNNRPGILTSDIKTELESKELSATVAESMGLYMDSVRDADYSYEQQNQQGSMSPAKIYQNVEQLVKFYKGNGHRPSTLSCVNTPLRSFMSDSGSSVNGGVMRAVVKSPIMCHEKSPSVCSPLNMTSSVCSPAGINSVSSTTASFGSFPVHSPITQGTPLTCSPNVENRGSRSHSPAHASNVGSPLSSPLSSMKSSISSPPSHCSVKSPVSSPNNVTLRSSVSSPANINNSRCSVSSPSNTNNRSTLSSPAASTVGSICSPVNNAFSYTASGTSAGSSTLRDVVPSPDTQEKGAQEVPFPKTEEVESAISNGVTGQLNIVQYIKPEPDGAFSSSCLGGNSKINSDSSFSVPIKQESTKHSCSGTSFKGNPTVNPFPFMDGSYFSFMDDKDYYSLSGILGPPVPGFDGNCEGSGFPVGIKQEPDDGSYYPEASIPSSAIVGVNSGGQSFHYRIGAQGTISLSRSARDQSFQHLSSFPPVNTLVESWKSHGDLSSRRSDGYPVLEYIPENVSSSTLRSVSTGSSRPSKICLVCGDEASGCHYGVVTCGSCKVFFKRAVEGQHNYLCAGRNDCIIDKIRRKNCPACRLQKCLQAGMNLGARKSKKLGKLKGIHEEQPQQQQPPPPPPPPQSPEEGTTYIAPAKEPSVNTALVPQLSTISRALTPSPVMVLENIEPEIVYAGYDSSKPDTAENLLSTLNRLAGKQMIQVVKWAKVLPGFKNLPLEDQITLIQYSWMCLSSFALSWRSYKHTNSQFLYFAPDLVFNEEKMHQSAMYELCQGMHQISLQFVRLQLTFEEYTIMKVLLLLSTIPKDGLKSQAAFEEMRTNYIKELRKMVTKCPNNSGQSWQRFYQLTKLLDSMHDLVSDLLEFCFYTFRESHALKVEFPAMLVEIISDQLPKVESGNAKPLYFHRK
Assay: Mineralocorticoid Receptor Binding Assay (Method 1)
Details: [3H]-aldosterone, racemic mixture unless otherwise indicated
Procedure: The full length human MR gene is cloned from a human kidney or human brain cDNA library. Briefly, using synthetic oligonucleotide primers (Eli Lilly and Company, Indianapolis) directed to nucleotides 20-54 and 3700-3666 of the human MR, polymerase chain reaction (PCR) is performed under standard conditions using a human cDNA library. The PCR reaction is performed in a final volume of 50 μl containing about 1 μl of a 50× stock solution of polymerase; about 1 μl of a 50× stock solution of dNTP; about 5 μl of an appropriate PCR buffer; about 1 μl of each primer; about 5 μl of a H. kidney or H. brain cDNA library; and about 36 μl of water. The reaction is allowed to denature for about 30 seconds at 95 degrees Celsius, anneal for about 30 seconds at 55 degrees Celsius, and extend for about 5 minutes at 72 degrees Celsius, the sequence being repeated for a total of about 35 cycles. The desired PCR product (3.68 Kb) is confirmed by gel electrophoresis and subsequently cut from the gel and stored at about −20 degrees Celsius until extraction. To extract the cDNA product from the agarose gel, the QIAEX II Gel Extraction protocol (QIAGEN, Inc.) is employed according to the manufacturer's instructions. Following extraction, the MR cDNA is cloned into an appropriate cloning vector (Zero Blunt TOPO PCR Cloning Kit (Invitrogen, Inc.) and a pAcHLT-baculovirus transfer vector (B.D./Pharminogen), then expressed in SF9 insect cells, essentially according to manufacturer's instructions. Sf9 cells are grown at a scale where gram quantity cell pellets are obtained for subsequent use in the MR binding assay. Harvested cell pellets are lysed by repeated freeze-thaw cycles (about 4) in a suitable lysis buffer then centrifuged at about 1×10^3 G (with the supernatant being saved for future assays).
MR binding assays are performed in a final total volume of about 250 μl containing about 20-25 μg of protein and 0.5 nM of [^3H]-aldosterone plus varying concentrations of test compound or vehicle. The assay binding buffer consists of 30 mM sodium molybdate, 30 mM of TRIS-HCl, 5 mM sodium phosphate, 5 mM sodium pyrophosphate, and about 10% glycerol, pH=7.5.
Briefly, assays are prepared at RT in 96-well Falcon 3072 plates, each well containing 210 μl of binding buffer, 10 μl of [^3H]-aldosterone, 10 μl of test compound/vehicle, and 20 μl of the resuspended receptor protein extract. Incubations are carried out at 4 degrees Celsius with shaking for about 16 hours. 200 μl aliquots of each incubation are filtered onto Millipore HA 0.45 micron 96-well filter plates, pre-moistened with cold 30 mM TRIS-HCl. The filter plates are suctioned dry with vacuum and immediately washed 3× with cold 30 mM TRIS-HCl. The plates are then punched out and the amount of receptor-ligand complex is determined by liquid scintillation counting using 4 ml of Ready Protein Plus™ liquid scintillation cocktail.
IC50 values (defined as the concentration of test compound required to decrease [^3H]-aldosterone binding by 50%) are then determined. Ki values for each respective test compound can then be calculated by application of the Cheng-Prusoff equation as described in Cheng et al., Relationship Between The Inhibition Constant (Ki) and The Concentration of Inhibitor Which Causes 50% Inhibition (IC50) of an Enzymatic Reaction, Biochem. Pharmacol., 22: 3099-31088; (1973).

Ki [nM]	Compound
≤ 500	CCC1(c2c[nH]c3c(NS(C)(=O)=O)cccc23)CCOc2cc(F)cc(F)c21 (racemic) [Example 36, N-[3-(4-Ethyl-5,7-difluoro-chroman-4-yl)-1H-indol-7-yl]-methanesulfonamide]
≤ 500	CS(=O)(=O)Nc1cccc2c(C3(C4CC4)CCc4cc(F)ccc43)c[nH]c12 (single isomer, unassigned) [Example 39A, N-[3-(1-Cyclopropyl-5-fluoro-indan-1-yl)-1H-indol-7-yl]-methanesulfonamide]
≤ 500	CCC1(c2c[nH]c3c([N+](=O)[O-])cccc23)CCc2cc(F)ccc21 (centres unmarked) [Example 2, 3-(1-Ethyl-5-fluoro-indan-1-yl)-7-nitro-1H-indole]
≤ 500	CC1(c2c[nH]c3c(NS(C)(=O)=O)cccc23)CCOc2cc(F)ccc21 (single isomer, unassigned) [Example 34B, N-[3-(7-Fluoro-4-methyl-chroman-4-yl)-1H-indol-7-yl]-methanesulfonamide]
≤ 500	CC1(c2c[nH]c3c(NS(C)(=O)=O)cccc23)CCOc2ccc(F)cc21 (centres unmarked) [Example 33, N-[3-(6-Fluoro-4-methyl-chroman-4-yl)-1H-indol-7-yl]-methanesulfonamide]
≤ 500	CC1(c2c[nH]c3c(NS(C)(=O)=O)cccc23)CCCc2ccccc21 (centres unmarked) [Example 26, N-[3-(1-Methyl-1,2,3,4-tetrahydro-naphthalen-1-yl)-1H-indol-7-yl]-methanesulfonamide]
≤ 500	CC1(c2c[nH]c3c(NS(C)(=O)=O)cccc23)CCc2cc(F)cc(F)c21 (single isomer, unassigned) [Example 22B, N-[3-(5,7-Difluoro-1-methyl-indan-1-yl)-1H-indol-7-yl]-methanesulfonamide]
≤ 500	CC1(c2c[nH]c3c(NS(C)(=O)=O)cccc23)CCSc2ccccc21 (centres unmarked) [Example 37, N-[3-(4-Methyl-thiochroman-4-yl)-1-indol-7-yl]-methanesulfonamide]
≤ 500	CCC1(c2c[nH]c3c(NS(C)(=O)=O)cccc23)CCc2cc(F)cc(F)c21 (racemic) [Example 23, N-[3-(1-Ethyl-5,7-difluoro-indan-1-yl)-1H-indol-7-yl]-methanesulfonamide]
≤ 500	CCC1(c2c[nH]c3c(NS(C)(=O)=O)cccc23)CCc2cc(F)ccc21 (single isomer, unassigned) [Example 1A, N-[3-(1-ethyl-5-fluoro-indan-1-yl)-1H-indol-7-yl]-methanesulfonamide]
≤ 500	CCC1(c2c[nH]c3c(N)cccc23)CCc2cc(F)ccc21 (centres unmarked) [Example 14, 3-(1-Ethyl-5-fluoro-indan-1-yl)-1H-indol-7-ylamine]
≤ 500	CS(=O)(=O)Nc1cccc2c(C3(CCCI)CCc4cc(F)ccc43)c[nH]c12 (centres unmarked) [Example 41, N-{3-[5-Fluoro-1-(3-iodo-propyl)-indan-1-yl]-1H-indol-7-yl}-methanesulfonamide]
≤ 500	CS(=O)(=O)Nc1cccc2c(C3(CCCN4CCOCC4)CCc4cc(F)ccc43)c[nH]c12 (centres unmarked) [Example 44, N-{3-[5-Fluoro-1-(3-morpholin-4-yl-propyl)-indan-1-yl]-1H-indol-7-yl}-methanesulfonamide]
≤ 500	CC1(c2c[nH]c3c(NS(C)(=O)=O)cccc23)CCc2ccccc21 (centres unmarked) [Example 20, N-[3-(1-Methyl-indan-1-yl)-1H-indol-7-yl]-methanesulfonamide]
≤ 500	CCC1(c2c[nH]c3c(NS(C)(=O)=O)cccc23)CCOc2cc(F)cc(F)c21 (single isomer, unassigned) [Example 36A, N-[3-(4-Ethyl-5,7-difluoro-chroman-4-yl)-1H-indol-7-yl]-methanesulfonamide]
≤ 500	CCC1(c2c[nH]c3c(NS(C)(=O)=O)cccc23)CCOc2cc(F)ccc21 (single isomer, unassigned) [Example 35A, N-[3-(4-Ethyl-7-fluoro-chroman-4-yl)-1H-indol-7-yl]-methanesulfonamide]
≤ 500	CCC1(c2c[nH]c3c(NS(C)(=O)=O)cccc23)CCCc2cc(F)cc(F)c21 (racemic) [Example 31, N-[3-(1-Ethyl-6,8-difluoro-1,2,3,4-tetrahydro-naphthalen-1-yl)-1H-indol-7-yl]-methanesulfonamide]
≤ 500	CS(=O)(=O)Nc1cccc2c(C3(C4CC4)CCc4cc(F)ccc43)c[nH]c12 (racemic) [Example 39, N-[3-(1-Cyclopropyl-5-fluoro-indan-1-yl)-1H-indol-7-yl]-methanesulfonamide]
≤ 500	CCC1(c2c[nH]c3c(NC(=O)OC)cccc23)CCc2cc(F)ccc21 (centres unmarked) [Example 15, [3-(1-Ethyl-5-fluoro-indan-1-yl)-1H-indol-7-yl]-carbamic acid methyl ester]
≤ 500	CCC1(c2c[nH]c3c(NS(C)(=O)=O)cccc23)CCc2cc(F)cc(F)c21 (single isomer, unassigned) [Example 23B, N-[3-(1-Ethyl-5,7-difluoro-indan-1-yl)-1H-indol-7-yl]-methanesulfonamide]
≤ 500	CC1(c2c[nH]c3c(NS(C)(=O)=O)cccc23)CCc2cc(F)ccc21 (racemic) [Example 21, N-[3-(5-Fluoro-1-methyl-indan-1-yl)-1H-indol-7-yl]-methanesulfonamide]
≤ 500	CCC1(c2c[nH]c3c(NS(=O)(=O)N(C)C)cccc23)CCc2cc(F)ccc21 (centres unmarked) [Example 17]
≤ 500	CS(=O)(=O)Nc1cccc2c(C3(CCCO)CCc4cc(F)ccc43)c[nH]c12 (single isomer, unassigned) [Example 40B, N-{3-[5-Fluoro-1-(3-hydroxy-propyl)-indan-1-yl]-1H-indol-7-yl}-methanesulfonamide]
≤ 500	CS(=O)(=O)Nc1cccc2c(C3(CCCO)CCc4cc(F)ccc43)c[nH]c12 (single isomer, unassigned) [Example 40A, N-{3-[5-Fluoro-1-(3-hydroxy-propyl)-indan-1-yl]-1H-indol-7-yl}-methanesulfonamide]
≤ 500	CS(=O)(=O)Nc1cccc2c(C3(C4CC4)CCc4cc(F)ccc43)c[nH]c12 (single isomer, unassigned) [Example 39B, N-[3-(1-Cyclopropyl-5-fluoro-indan-1-yl)-1H-indol-7-yl]-methanesulfonamide]
≤ 500	CC1(c2c[nH]c3c(NS(C)(=O)=O)cccc23)CCc2cc(F)cc(F)c21 (racemic) [Example 22, N-[3-(5,7-Difluoro-1-methyl-indan-1-yl)-1H-indol-7-yl]-methanesulfonamide]

Reference: patent US20070185161A1, “Bicyclic substituted indole-derivative steroid hormone nuclear receptor modulators” (priority 2004, published 2007)
